Data reported in publication PMC3298755 (Nature Chemical Biology, 2011).
Where two headings read alike, the source gives them in different places.

Columns and labels:
mCOX-2 = target: T1, mCOX-2 (Mus musculus, UniProt Q05769); test: Inhibition of COX-2 oxygenation of AA, PG formation by LC-MS-MS; assay type: biochemical
T1 sequence (Q05769 18-604): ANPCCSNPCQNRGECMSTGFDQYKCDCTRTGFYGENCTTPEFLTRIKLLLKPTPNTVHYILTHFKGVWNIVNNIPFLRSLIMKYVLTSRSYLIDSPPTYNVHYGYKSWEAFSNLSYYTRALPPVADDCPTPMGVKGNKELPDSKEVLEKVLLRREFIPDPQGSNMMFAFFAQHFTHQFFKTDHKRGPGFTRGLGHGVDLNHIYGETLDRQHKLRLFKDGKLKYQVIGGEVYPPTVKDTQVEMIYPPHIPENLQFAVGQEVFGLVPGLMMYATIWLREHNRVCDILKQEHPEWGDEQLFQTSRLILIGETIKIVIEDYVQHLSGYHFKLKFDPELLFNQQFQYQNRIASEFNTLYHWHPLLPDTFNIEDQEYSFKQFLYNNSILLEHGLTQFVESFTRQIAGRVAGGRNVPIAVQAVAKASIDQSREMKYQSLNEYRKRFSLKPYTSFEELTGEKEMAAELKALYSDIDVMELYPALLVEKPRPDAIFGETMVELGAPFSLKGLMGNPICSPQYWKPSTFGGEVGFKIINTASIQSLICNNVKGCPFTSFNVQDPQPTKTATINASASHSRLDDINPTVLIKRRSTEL

stimulated DRGs = test: Substrate levels; assay type: cell-based, mouse
COX-2 in stimulated DRGs [1] = assay type: cell-based, mouse; settings: read-out: IC50 for inhibition of AEA oxidation in DRGs
COX-2 in stimulated DRGs [2] = assay type: cell-based, mouse
FAAH = settings: read-out: IC50, FAAH inhibition; in vitro; ref [29]; cited from earlier work
COX-2 in stimulated DRGs [3] = assay type: cell-based, mouse; settings: read-out: IC50 for inhibition of 2-AG oxidation in DRGs

SMILES | IC50, inhibition of COX-2 oxygenation of AA (result in words) (mCOX-2; 50 μM AA, 15 min pre-incubation, 30 s reaction, LC-MS-MS) | Amount of 2-AG in cell extracts (stimulated DRGs) | Amount of AA in cell extracts (stimulated DRGs) | Amount of AEA in cell extracts (stimulated DRGs) | IC50 (COX-2 in stimulated DRGs [1]) [µM] | Inhibition of the synthesis of PGs in DRGs (COX-2 in stimulated DRGs [2]) | IC50 (FAAH) [µM] | IC50 (COX-2 in stimulated DRGs [3]) [µM] | Inhibition of the synthesis of PGs in DRGs (COX-2 in stimulated DRGs [2]; stimulated DRGs, at concentrations that inhibited PG-G and PG-EA synthesis) | Inhibition of AA oxidation by COX-2 (mCOX-2; at either 5 or 50 μM substrate concentrations)
Cc1ccc(Nc2c(F)cccc2Cl)c(CC(=O)O)c1 [Lumiracoxib] | no inhib. |  |  |  |  |  |  |  |  | 
CC(C)Cc1ccc([C@@H](C)C(=O)O)cc1 [(R)-ibuprofen] |  | increased | did not increase | increased |  |  |  |  |  | 
C[C@@H](C(=O)O)c1ccc(-c2ccccc2)c(F)c1 [(R)-flurbiprofen] |  | increased | did not increase | increased | 6 ± 2.7 | did not inhibit | > 1000 | 5.8 ± 2.9 |  | 
COc1ccc2cc([C@@H](C)C(=O)O)ccc2c1 [(R)-naproxen] |  | increased | did not increase | increased |  |  |  |  | did not inhibit | did not inhibit
